Assays:
[1] = logD7.4 determination of radiotracers (PBS/octan-1-ol); format: physicochemical; conditions: octan-1-ol/PBS; PBS pH 7.4 / octan-1-ol, radiotracer
Protocol: The logD 7.4 values of both radiotracers were determined using a previously described method based on their distribution between phosphate‐buffered saline (PBS) and octan‐1‐ol.
Triazole radiotracers (~400 kBq) in PBS buffer (10 µL, pH 7.4) were added to PBS buffer (590 µL, pH 7.4) and octan-1-ol (600 µL). The two-layer mixture was shaken for 3 min on a vortex mixer at r.t. and centrifuged (200 g) for 5 min. The main part of the octanol layer (400 µL) was carefully collected and transferred to a new tube containing PBS buffer (400 µL, pH 7.4). The two-layer mixture was shaken again for 10 min and centrifuged for 5 min (200 g). Three samples were prepared, and two aliquots (á 100 µL) of both layers were measured in a gamma-counter 2480 Wizard2 (Perkin-Elmer, Waltham, USA). The partition coefficient was determined by dividing cpm (octanol) by cpm (PBS) and indicated as logD7.4 (exp.).

[2] = target: T1, Soluble recombinant human CD73 (Homo sapiens, UniProt P21589); experiment: CD73 enzyme inhibition assay, soluble recombinant human CD73; format: biochemical; conditions: soluble recombinant human CD73, Km 17 µM, substrate AMP (5 µM)
T1 sequence (P21589 27-549 limits assumed): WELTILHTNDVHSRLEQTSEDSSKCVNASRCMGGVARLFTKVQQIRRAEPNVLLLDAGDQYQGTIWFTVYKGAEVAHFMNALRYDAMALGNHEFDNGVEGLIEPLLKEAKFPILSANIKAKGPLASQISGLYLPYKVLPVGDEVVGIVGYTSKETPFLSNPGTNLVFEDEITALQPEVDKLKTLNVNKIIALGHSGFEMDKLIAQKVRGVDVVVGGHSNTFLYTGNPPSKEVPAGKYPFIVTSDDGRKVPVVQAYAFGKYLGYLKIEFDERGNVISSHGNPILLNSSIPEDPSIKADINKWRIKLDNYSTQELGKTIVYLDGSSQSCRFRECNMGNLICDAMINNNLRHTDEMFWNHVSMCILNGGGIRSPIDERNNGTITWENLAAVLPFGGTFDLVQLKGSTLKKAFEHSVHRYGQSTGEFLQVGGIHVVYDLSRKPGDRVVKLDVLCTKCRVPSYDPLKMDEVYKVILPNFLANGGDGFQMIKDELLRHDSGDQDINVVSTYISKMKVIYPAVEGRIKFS
Protocol: Both compounds were evaluated for metabolic stability in mouse liver microsomes (MLM) and plasma protein binding (PPB) (Table 1).
The CD73 enzyme inhibition assay of recombinant soluble CD73, membrane-bound human CD73, soluble rat CD73 and mouse CD73 was performed as previously described.^[16,35^]

[3] = target: T2, CD73 in human breast cancer samples (Homo sapiens, UniProt P21589); experiment: Autoradiography on human breast tumor and sentinel lymph node cryosections; format: binding; conditions: autoradiography, cryosections
T2 construct: cryosections of breast tumor samples as well as sentinel lymph node samples were investigated; from tissue; host or cells: primary breast tumors and sentinel lymph nodes of two patients, 6 µm cryosections
T2 sequence (P21589 27-574): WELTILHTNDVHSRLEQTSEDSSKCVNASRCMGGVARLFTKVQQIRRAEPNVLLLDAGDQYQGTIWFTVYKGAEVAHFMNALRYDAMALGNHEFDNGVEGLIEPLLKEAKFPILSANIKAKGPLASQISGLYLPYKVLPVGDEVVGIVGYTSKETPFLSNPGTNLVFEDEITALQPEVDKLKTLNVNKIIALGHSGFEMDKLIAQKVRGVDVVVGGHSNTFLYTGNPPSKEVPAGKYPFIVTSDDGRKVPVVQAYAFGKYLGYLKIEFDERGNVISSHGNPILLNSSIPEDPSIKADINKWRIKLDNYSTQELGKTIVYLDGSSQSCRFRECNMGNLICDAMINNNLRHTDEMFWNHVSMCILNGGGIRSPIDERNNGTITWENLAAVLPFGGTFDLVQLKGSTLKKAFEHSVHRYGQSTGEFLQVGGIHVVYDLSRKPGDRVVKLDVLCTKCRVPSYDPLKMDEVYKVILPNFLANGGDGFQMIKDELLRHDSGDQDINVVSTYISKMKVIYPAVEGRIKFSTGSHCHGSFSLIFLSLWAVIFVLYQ
Protocol: To test specific radiotracer binding to its target, we performed in situ autoradiography. [^18F]2 was applied onto cryosections of neighboring slides of tumor tissues from primary breast tumors from patient X (Figure 4A) and patient Y (Figure 4B), used for immunohistochemistry and AMPase activity determination. Sentinel LN from patient Y was incubated with [^18F]1 (Figure 4C).
FIGURE 4 Autoradiographic imaging of ^18F‐labeled CD73 tracer binding to tissue samples of breast tumors and sentinel lymph nodes. Primary breast tumor (A, B) and LN cryosections (C) were incubated with [^18F]2 or [^18F]1 in the absence (control) and in the presence of an unlabeled CD73 inhibitor, AMPCP (13) or JMS04‐14 (14), as indicated. The samples were processed for autoradiographic analysis, as described in the materials and methods section. The white dotted lines outline the tissue boundaries. (D). Structures of CD73 inhibitors applied as blockers in this study.
For the assessment of ^18F-labeled CD73 tracer binding to human tissues, cryosections of breast tumor samples as well as sentinel lymph node samples were investigated. Cryosections were thawed and pre-incubated for 15 min at room temperature in 2-[4-(2-hydroxyethyl)piperazin-1-yl]ethanesulfonic acid buffer (HEPES). […] Blocking compounds were prepared according to the molar activity of the radiolabeled tracers [^18F]MRS-4648 and [^18F]PSB-19427 aiming at a 1000-fold excess of the blocking agent. For each tissue sample, neighboring sections were incubated for 20 min at room temperature with a mixture of 50µL of the radiotracer and 50µL of the classical CD73 inhibitor AMPCP (25 nmol, in PBS), or JMS0414 (61 nmol, in HEPES), or HEPES buffer respectively. After incubation, slides were washed three times with PBS and Aqua bidest, mounted on a slide holder for the image acquisition, and covered with protection and scintillation foils. Digital autoradiography measurement of each slide was performed for 60 minutes (Micro Imager, Biospace, France). Acquired data were corrected for radioactive decay in reference to the start of the acquisition as well as the start of the incubation.

Row | logD [1] | Ki [2] | Tracer binding to CD73 in human breast cancer samples [3] | Compound
1 | -0.12 ± 0.03 | 1.02 nM |  | CCCN(Cc1ccc(-c2cn(CCF)nn2)cc1)c1nc(Cl)nc2c1ncn2[C@@H]1O[C@H](COP(=O)(O)CP(=O)(O)O)[C@@H](O)[C@H]1O [compound 1]
2 | -0.12 | 1.02 ± 0.11 nM | selectively bind | CCCN(Cc1ccc(-c2cn(CC[18F])nn2)cc1)c1nc(Cl)nc2c1ncn2[C@@H]1O[C@H](COP(=O)(O)CP(=O)(O)O)[C@@H](O)[C@H]1O [[^18F]1, [^18F]-[((2R,3S,4R,5R)-5-{2-chloro-6-[(4-{1-[2-(fluoro)ethyl]-1H-1,2,3-triazol-4-yl}benzyl)-(propyl)amino]-9H-purin-9-yl}-3,4-dihydroxytetrahydrofuran-2-yl)methoxy]methylene-bisphosphonic acid]
3 | 0.74 ± 0.29 | 0.664 ± 0.089 nM | selectively bind | Cn1c(=O)n([C@@H]2O[C@H](COP(=O)(O)CP(=O)(O)O)[C@@H](O)[C@H]2O)cc/c1=N/OCc1ccc(-c2cn(CC[18F])nn2)cc1 [[^18F]2, [^18F]-{[(2R,3S,4R,5R)-5-(4-{[(4-{1-[2-(fluoro)ethyl]-1H-1,2,3-triazol-4-yl}benzyl)-oxy]imino}-3-methyl-2-oxo-3,4-dihydropyrimidin-1(2H)-yl)-3,4-dihydroxytetra-hydrofuran-2-yl]methoxy}methylenebisphosphonic acid]

— PMC13077603, “Fluorine‐18‐Labeled Nucleotide Analogs Targeting Ecto‐5'‐Nucleotidase (CD73) for Positron Emission Tomography Imaging of Solid Tumors” (Angewandte Chemie (International Ed. in English), 2026)
